Data: the NIST ThermoML archive (doi:10.1016/j.jct.2011.12.013)
± gives the expanded uncertainty stated by the source.

Assays:
[1] = Liquid, Custom Made Vibrating Tube Densimeter
[2] = xn = mol fraction of the nth substance listed; conditions: Liquid, Custom Made Vibrating Tube Densimeter, x1 = 1

What does the source list for `C=C1CC[C@H]2C[C@@H]1C2(C)C` [(1S,5S)-6,6-dimethyl-2-methylenebicyclo[3.1.1]heptane]?
mass density ([1]; 283.15 K, 20000 kPa): 891.3 ± 0.2 kg/m3; mass density ([1]; 283.15 K, 25000 kPa): 894.2 ± 0.2 kg/m3; mass density ([1]; 283.15 K, 30000 kPa): 897 ± 0.2 kg/m3; mass density ([1]; 283.15 K, 35000 kPa): 899.9 ± 0.2 kg/m3; mass density ([1]; 283.15 K, 40000 kPa): 902.6 ± 0.2 kg/m3; mass density ([1]; 298.15 K, 20000 kPa): 880.2 ± 0.2 kg/m3; mass density ([1]; 298.15 K, 25000 kPa): 883.3 ± 0.2 kg/m3; mass density ([1]; 298.15 K, 30000 kPa): 886.3 ± 0.2 kg/m3; mass density ([1]; 298.15 K, 35000 kPa): 889.3 ± 0.2 kg/m3; mass density ([1]; 298.15 K, 40000 kPa): 892.2 ± 0.2 kg/m3; mass density ([1]; 313.15 K, 20000 kPa): 869.3 ± 0.2 kg/m3; mass density ([1]; 313.15 K, 25000 kPa): 872.6 ± 0.2 kg/m3; mass density ([1]; 313.15 K, 30000 kPa): 875.7 ± 0.2 kg/m3; mass density ([1]; 313.15 K, 35000 kPa): 878.8 ± 0.2 kg/m3; mass density ([1]; 313.15 K, 40000 kPa): 882 ± 0.2 kg/m3; mass density ([1]; 328.15 K, 20000 kPa): 858.2 ± 0.2 kg/m3; mass density ([1]; 328.15 K, 25000 kPa): 861.7 ± 0.2 kg/m3; mass density ([1]; 328.15 K, 30000 kPa): 865.2 ± 0.2 kg/m3; mass density ([1]; 328.15 K, 35000 kPa): 868.7 ± 0.2 kg/m3; mass density ([1]; 328.15 K, 40000 kPa): 872.2 ± 0.2 kg/m3; mass density ([1]; 343.15 K, 20000 kPa): 847.7 ± 0.2 kg/m3; mass density ([1]; 343.15 K, 25000 kPa): 851.4 ± 0.2 kg/m3; mass density ([1]; 343.15 K, 30000 kPa): 855 ± 0.2 kg/m3; mass density ([1]; 343.15 K, 35000 kPa): 858.6 ± 0.2 kg/m3; mass density ([1]; 343.15 K, 40000 kPa): 862.1 ± 0.2 kg/m3; mass density ([1]; 358.15 K, 20000 kPa): 837 ± 0.2 kg/m3; mass density ([1]; 358.15 K, 25000 kPa): 840.9 ± 0.2 kg/m3; mass density ([1]; 358.15 K, 30000 kPa): 844.8 ± 0.2 kg/m3; mass density ([1]; 358.15 K, 35000 kPa): 848.7 ± 0.2 kg/m3; mass density ([1]; 358.15 K, 40000 kPa): 852.6 ± 0.2 kg/m3

Which mass density ([1]; 283.15 K, 20000 kPa) does the source give for `C=C(C)[C@H]1CC=C(C)CC1` [(R)-1-methyl-4-(1-methylethenyl)cyclohexene] here?
The mass density was 862 ± 0.8 kg/m3.

What about the mass density ([1]; 283.15 K, 25000 kPa) of the same compound?
The mass density was 864.9 ± 0.8 kg/m3.

What about the mass density ([1]; 283.15 K, 30000 kPa) of the same compound?
Its mass density is 867.7 ± 0.8 kg/m3.

What about the mass density ([1]; 283.15 K, 35000 kPa) of the same compound?
Its mass density is 870.4 ± 0.8 kg/m3.

And the mass density ([1]; 283.15 K, 40000 kPa)?
The mass density was 873.3 ± 0.8 kg/m3.

What about the mass density ([1]; 298.15 K, 20000 kPa) of the same compound?
The mass density was 851.5 ± 0.8 kg/m3.

And the mass density ([1]; 298.15 K, 25000 kPa)?
Its mass density is 854.5 ± 0.8 kg/m3.

What about the mass density ([1]; 298.15 K, 30000 kPa) of the same compound?
The mass density was 857.6 ± 0.8 kg/m3.

And the mass density ([1]; 298.15 K, 35000 kPa)?
The mass density was 860.9 ± 0.8 kg/m3.

And the mass density ([1]; 298.15 K, 40000 kPa)?
Its mass density is 863.4 ± 0.8 kg/m3.

And the mass density ([1]; 313.15 K, 20000 kPa)?
Its mass density is 841 ± 0.7 kg/m3.

What about the mass density ([1]; 313.15 K, 25000 kPa) of the same compound?
Its mass density is 844.2 ± 0.7 kg/m3.

What about the mass density ([1]; 313.15 K, 30000 kPa) of the same compound?
The mass density was 847.2 ± 0.8 kg/m3.

And the mass density ([1]; 313.15 K, 35000 kPa)?
Its mass density is 850.3 ± 0.8 kg/m3.

What about the mass density ([1]; 313.15 K, 40000 kPa) of the same compound?
Its mass density is 853.3 ± 0.8 kg/m3.

What about the mass density ([1]; 328.15 K, 20000 kPa) of the same compound?
The mass density was 830.5 ± 0.7 kg/m3.

What about the mass density ([1]; 328.15 K, 25000 kPa) of the same compound?
The mass density was 833.8 ± 0.7 kg/m3.

And the mass density ([1]; 328.15 K, 30000 kPa)?
Its mass density is 837.2 ± 0.7 kg/m3.

And the mass density ([1]; 328.15 K, 35000 kPa)?
Its mass density is 840.4 ± 0.7 kg/m3.

And the mass density ([1]; 328.15 K, 40000 kPa)?
Its mass density is 843.8 ± 0.7 kg/m3.

And the mass density ([1]; 343.15 K, 20000 kPa)?
The mass density was 820.1 ± 0.7 kg/m3.

What about the mass density ([1]; 343.15 K, 25000 kPa) of the same compound?
The mass density was 823.7 ± 0.7 kg/m3.

What about the mass density ([1]; 343.15 K, 30000 kPa) of the same compound?
Its mass density is 827.3 ± 0.7 kg/m3.

And the mass density ([1]; 343.15 K, 35000 kPa)?
Its mass density is 831.1 ± 0.7 kg/m3.

What about the mass density ([1]; 343.15 K, 40000 kPa) of the same compound?
The mass density was 834.6 ± 0.7 kg/m3.

What about the mass density ([1]; 358.15 K, 20000 kPa) of the same compound?
The mass density was 810.2 ± 0.7 kg/m3.

What about the mass density ([1]; 358.15 K, 25000 kPa) of the same compound?
Its mass density is 813.9 ± 0.7 kg/m3.

What about the mass density ([1]; 358.15 K, 30000 kPa) of the same compound?
Its mass density is 817.6 ± 0.7 kg/m3.

And the mass density ([1]; 358.15 K, 35000 kPa)?
Its mass density is 821.3 ± 0.7 kg/m3.

And the mass density ([1]; 358.15 K, 40000 kPa)?
Its mass density is 824.8 ± 0.7 kg/m3.

Which results are given for `C=C(C)[C@H]1CC=C(C)CC1` [(R)-1-methyl-4-(1-methylethenyl)cyclohexene] + C=C1CC[C@H]2C[C@@H]1C2(C)C?
mass density ([2]; 283.15 K, 20000 kPa): 862 ± 1.1 kg/m3; mass density ([2]; 283.15 K, 25000 kPa): 864.9 ± 1.1 kg/m3; mass density ([2]; 283.15 K, 30000 kPa): 867.7 ± 1.1 kg/m3; mass density ([2]; 283.15 K, 35000 kPa): 870.4 ± 1.1 kg/m3; mass density ([2]; 283.15 K, 40000 kPa): 873.3 ± 1.2 kg/m3; mass density ([2]; 298.15 K, 20000 kPa): 851.5 ± 1.1 kg/m3; mass density ([2]; 298.15 K, 25000 kPa): 854.5 ± 1.1 kg/m3; mass density ([2]; 298.15 K, 30000 kPa): 857.6 ± 1.1 kg/m3; mass density ([2]; 298.15 K, 35000 kPa): 860.9 ± 1.1 kg/m3; mass density ([2]; 298.15 K, 40000 kPa): 863.4 ± 1.1 kg/m3; mass density ([2]; 313.15 K, 20000 kPa): 841 ± 1.1 kg/m3; mass density ([2]; 313.15 K, 25000 kPa): 844.2 ± 1.1 kg/m3; mass density ([2]; 313.15 K, 30000 kPa): 847.2 ± 1.1 kg/m3; mass density ([2]; 313.15 K, 35000 kPa): 850.3 ± 1.1 kg/m3; mass density ([2]; 313.15 K, 40000 kPa): 853.3 ± 1.1 kg/m3; mass density ([2]; 328.15 K, 20000 kPa): 830.5 ± 1.1 kg/m3; mass density ([2]; 328.15 K, 25000 kPa): 833.8 ± 1.1 kg/m3; mass density ([2]; 328.15 K, 30000 kPa): 837.2 ± 1.1 kg/m3; mass density ([2]; 328.15 K, 35000 kPa): 840.4 ± 1.1 kg/m3; mass density ([2]; 328.15 K, 40000 kPa): 843.8 ± 1.1 kg/m3; mass density ([2]; 343.15 K, 20000 kPa): 820.1 ± 1.1 kg/m3; mass density ([2]; 343.15 K, 25000 kPa): 823.7 ± 1.1 kg/m3; mass density ([2]; 343.15 K, 30000 kPa): 827.3 ± 1.1 kg/m3; mass density ([2]; 343.15 K, 35000 kPa): 831.1 ± 1.1 kg/m3; mass density ([2]; 343.15 K, 40000 kPa): 834.6 ± 1.1 kg/m3; mass density ([2]; 358.15 K, 20000 kPa): 810.2 ± 1.1 kg/m3; mass density ([2]; 358.15 K, 25000 kPa): 813.9 ± 1.1 kg/m3; mass density ([2]; 358.15 K, 30000 kPa): 817.6 ± 1.1 kg/m3; mass density ([2]; 358.15 K, 35000 kPa): 821.3 ± 1.1 kg/m3; mass density ([2]; 358.15 K, 40000 kPa): 824.8 ± 1.1 kg/m3
